From article PMC7395068, “The evolution of strategies to minimise the risk of human drug-induced liver injury (DILI) in drug discovery and development” (Archives of Toxicology, 2020)
Where two headings read alike, the source gives them in different places.

How the values were obtained:
human hepatocytes = details: cited from earlier work; for Structural based (HCI): In vitro Assay, ref Xu 2008
RMPCC's = details: In vitro Assay; ref Khetani 2012; cited from earlier work
HepG2 cells [1] = details: cited from earlier work; for Structural based (HCI): In vitro Assay, ref O'Brien 2006
PHH spheroids = details: cited from earlier work; for hLiMTs ATP <20 x Cmax: In vitro Assay, ref Vorrink 2018
HepaRG spheroids = assay: Combined HCI (HCS) and cellular ATP 3D assay in HepaRG spheroids
Procedure: 3D spheroid models consisting of either primary human hepatocytes with non-parenchymal cells (hLiMT’s) or HepaRG cells (HepaRG spheroids) were assessed for size (MS), oxidative stress (OS), MMP, mitochondrial mass (MM), GSH and cellular ATP content following drug exposure. Fluorescent images are acquired using the confocal mode of an ArrayScan™ XTI HCI reader (ThermoScientific) following which cellular ATP was measured using 3D CellTiter-Glo (Promega).

hLiMTs [2] = details: cited from earlier work
[3] = tested on: HepG2 C3A spheroid, BSEP, Glu/Gal in HepG2 cells, bioactivation; details: cited from earlier work
[4] = ref Chen 2011; cited from earlier work
[5] = tested on: HepG2 cells, primary human hepatocytes; details: In vitro Assay; ref Garside 2014; cited from earlier work
hu-MPCC = details: In vitro Assay; ref Khetani 2012; cited from earlier work
PHH [6] = details: cited from earlier work
HepG2 cells [7] = details: cited from earlier work; for Cluser analysis / Structural based (HCI): In vitro Assay, ref Persson 2013
hLiMTs [8] = assay: Combined HCI (HCS) and cellular ATP 3D assay in hLiMTs
HepG2 = tested on: HepG2; set-up: method as in Albrecht 2019; details: In vitro Assay; ref Albrecht 2019; cited from earlier work
[9] = cited from earlier work
[10] = tested on: THLE or HepG2 cells, isolated mitochondria, BSEP; details: cited from earlier work; for Ro2 Hybrid HRM Score / Partition Hybrid HRM Score: In vitro Assay, ref Aleo 2019
rBsep [11] = details: In vitro Assay; ref Dawson 2012; cited from earlier work
PHH [12] = details: In vitro Assay; ref Albrecht 2019; cited from earlier work
[13] = cited from earlier work; remark: listed apart in the source
rBsep [14] = tested on: rBsep; set-up: method as in Dawson 2012; details: In vitro Assay; ref Dawson 2012; cited from earlier work
[15] = tested on: THLE-Null and THLE-3A4 cells; details: In vitro Assay; ref Gustafsson 2014; cited from earlier work
[16] = tested on: isolated mouse liver mitochondria; details: In vitro Assay; ref Porceddu 2012; cited from earlier work
Upcyte human hepatocytes = details: In vitro Assay; ref Tolosa 2019; cited from earlier work
[17] = Microtissue model structural based (HCI), combined HCS and ATP, MEC < 25 × Cmax.tot cut-off
[18] = In vitro Assay, ref Proctor 2017
[19] = Modeled in vitro assays (cytotoxicity, mitochondrial dysfunction, BSEP), ref Aleo et al. 2019

O=C1CC2(CCCC2)CC(=O)N1CCCCN1CCN(c2ncccn2)CC1 [buspirone, reference compound]
Structural based (HCI) (human hepatocytes): -VE
DILI in vitro assay prediction, Xu (2008) (human hepatocytes; Structural based (HCI), human hepatocytes, ref Xu et al. 2008): -VE
RMPCC's (RMPCC's): -VE
Structural based (HCI) (HepG2 cells [1]): -VE
DILI in vitro assay prediction, O'Brien (2006) (HepG2 cells [1]; Structural based (HCI), HepG2, ref O'Brien et al. 2006): -VE
hLiMTs ATP <20 x Cmax (PHH spheroids): -VE
DILI in vitro assay prediction, Vorrink (2018) (PHH spheroids; PHH spheroids, ATP, 14 days, IC20 < 20 × Cmax.tot, ref Vorrink et al. 2018): -VE
HepaRG <25x Avg Cmax ATP (HepaRG spheroids; HepaRG, ATP endpoint, cut-off <25x Avg Cmax): -ve
HepaRG <100x Avg Cmaxu ATP (HepaRG spheroids; HepaRG, ATP endpoint, cut-off <100x Avg Cmaxu): -ve
HepaRG <25x Avg Cmax HCS (HepaRG spheroids; HepaRG, HCS endpoints, cut-off <25x Avg Cmax): -ve
HepaRG <100x Avg Cmaxu HCS (HepaRG spheroids; HepaRG, HCS endpoints, cut-off <100x Avg Cmaxu): -ve
HepaRG <25x Avg Cmax All (HepaRG spheroids; HepaRG, all endpoints (ATP and HCS), cut-off <25x Avg Cmax): -ve
HepaRG Cmax max All (HepaRG spheroids; HepaRG, all endpoints, Cmax max used): -ve
HepaRG Cmax min All (HepaRG spheroids; HepaRG, all endpoints, Cmax min used): -ve
HepaRG <10 uM All (HepaRG spheroids; HepaRG, all endpoints, cut-off <10 uM): -ve
HepaRG <100x Avg Cmaxu All (HepaRG spheroids; HepaRG, all endpoints, cut-off <100x Avg Cmaxu): -ve
DILI prediction HepaRG spheroids (HCS-MEC) (HepaRG spheroids; [17]): -VE
hLiMTs ATP <100uM (hLiMTs [2]; [18]): -VE
hLiMTs/100uM, Proctor (2017) (hLiMTs [2]; hLiMTs, ATP, IC50 threshold 100 µM, ref Proctor et al. 2017): -VE
Bayesian Machine Learning DILI prediction, Williams (2019) ([3]; Bayesian modeling, ref Williams et al. 2019): -VE
Bayesian Machine Learning ([3]; In vitro Assay, ref Williams 2019): -VE
DILI Score (FDA) (1-8) [4]: 3
Cluster 1-6 +VE Assay [5]: +VE
HMPCC's (hu-MPCC): -VE
PHH/100uM, Proctor (2017) (PHH [6]; 2D PHH, ATP, IC50 threshold 100 µM, ref Proctor et al. 2017): -VE
PHH ATP <100uM (PHH [6]; [18]): -VE
Cluser analysis (HepG2 cells [7]): -VE
Structural based (HCI) (HepG2 cells [7]): -VE
DILI in vitro assay prediction, Persson (2013) (HepG2 cells [7]; Structural based (HCI), HepG2, ref Persson et al. 2013): -VE
AC50 (hLiMTs [8]; Homo sapiens, read-out: ATP endpoint AC50): 5.15 µM
minimal effective concentration (hLiMTs [8]; Homo sapiens, read-out: ATP endpoint MEC): 3.12 µM
DILI prediction hLiMTs (HCS-MEC) (hLiMTs [8]; [17]): -VE
hLiMTs <25x Avg Cmax ATP (hLiMTs [8]; hLiMTs, ATP endpoint, cut-off <25x Avg Cmax): -ve
hLiMTs <100x Avg Cmaxu ATP (hLiMTs [8]; hLiMTs, ATP endpoint, cut-off <100x Avg Cmaxu): -ve
hLiMTs <25x Avg Cmax HCS (hLiMTs [8]; hLiMTs, HCS endpoints, cut-off <25x Avg Cmax): -ve
hLiMTs <100x Avg Cmaxu HCS (hLiMTs [8]; hLiMTs, HCS endpoints, cut-off <100x Avg Cmaxu): -ve
hLiMTs <25x Avg Cmax All (hLiMTs [8]; hLiMTs, all endpoints (ATP and HCS), cut-off <25x Avg Cmax): -ve
hLiMTs Cmax max All (hLiMTs [8]; hLiMTs, all endpoints, Cmax max used): -ve
hLiMTs Cmax min All (hLiMTs [8]; hLiMTs, all endpoints, Cmax min used): -ve
hLiMTs <10 uM All (hLiMTs [8]; hLiMTs, all endpoints, cut-off <10 uM): +ve (<10 uM)
hLiMTs <100x Avg Cmaxu All (hLiMTs [8]; hLiMTs, all endpoints, cut-off <100x Avg Cmaxu): -ve
Cytotoxicity HepG2 48 hrs (HepG2): -VE
DILI severity category (Chen et al. [2016]) ([9]; LTKB DILIrank category, ref Chen et al. 2016): Ambiguous
DILI severity category (Chen 2016) ([9]; human DILI classification, LTKB DILIrank, ref Chen et al. 2016): Ambiguous
DILI severity category ([9]; human DILI severity, ref Chen et al.): Ambiguous
DILI +VE (5-8), DILI -VE (-4) ([9]; ref Chen 2016): -VE
DILI severity category ([9]; ref Chen 2016): Ambiguous DILI-concern
Ro2 Hybrid HRM Score [10]: -VE
Rule of Two hybrid HRM Score ≥3, Aleo (2019) [10, 19]: -VE
Rule of Two hybrid HRM Score ≥8, Aleo (2019) [10, 19]: -VE
Inhibition of rBsep cutoff<1& cmax u>.2 (rBsep [11]): -VE
Inhibition of rBsep cutoff<3 (rBsep [11]): -VE
Cytotoxicity PHH 48 hrs (PHH [12]): -VE
Assigned DILI category ([13]; Chen et al. 2016 or literature alignment, ref Chen et al. 2016): 1
In vivo DILI ([13]; […]): -VE
In vivo DILI ([13]; ref Albrecht 2019): -VE
In vivo DILI ([13]; ref Dawson 2012): -VE
In vivo DILI ([13]; ref Garside 2014): -VE
In vivo DILI ([13]; ref Gustafsson 2014): -VE
In vivo DILI ([13]; ref Khetani 2012): -VE
In vivo DILI ([13]; ref O'Brien 2006): -VE
In vivo DILI ([13]; ref Persson 2013): -VE
In vivo DILI ([13]; ref Proctor 2017): -VE
In vivo DILI ([13]; ref Schadt 2015): -VE
In vivo DILI ([13]; ref Vorrink 2018): -VE
In vivo DILI ([13]; ref Williams 2019): -VE
In vivo DILI ([13]; ref Xu 2008): -VE

CCC(=O)O[C@]1(C(=O)CCl)[C@@H](C)C[C@H]2[C@@H]3CCC4=CC(=O)C=C[C@]4(C)[C@@]3(F)[C@@H](O)C[C@@]21C [clobetasol propionate]
Inhibition of rBsep cutoff<1& cmax u>.2 (rBsep [14]): -VE
Inhibition of rBsep cutoff<3 (rBsep [14]): +VE
THLE-Null [15]: -VE
THLE-Null/3A4 [15]: -VE
Cluster 1-6 +VE Assay [5]: -VE
In vivo DILI ([13]; ref Dawson 2012): -VE
In vivo DILI ([13]; ref Garside 2014): -VE
In vivo DILI ([13]; ref Gustafsson 2014): -VE

Cc1onc(-c2ccccc2Cl)c1C(=O)N[C@@H]1C(=O)N2[C@@H]1SC(C)(C)[C@@H]2C(=O)O [cloxacillin]
Inhibition of rBsep cutoff<1& cmax u>.2 (rBsep [14]): -VE
Inhibition of rBsep cutoff<3 (rBsep [14]): -VE

CC(C)(S)[C@@H](N)C(=O)O [d-penicillamine]
Inhibition of rBsep cutoff<1& cmax u>.2 (rBsep [14]): -VE
Inhibition of rBsep cutoff<3 (rBsep [14]): -VE
THLE-Null [15]: -VE
THLE-Null/3A4 [15]: -VE
in vitro data EC2<=1x Cmax [16]: +VE
in vitro data EC20<=2uM [16]: -VE
In vivo DILI ([13]; ref Dawson 2012): +VE
In vivo DILI ([13]; ref Gustafsson 2014): +VE
In vivo DILI ([13]; ref Porceddu 2012): +VE

Cc1onc(-c2c(Cl)cccc2Cl)c1C(=O)N[C@@H]1C(=O)N2[C@@H]1SC(C)(C)[C@@H]2C(=O)O [dicloxacillin]
Inhibition of rBsep cutoff<1& cmax u>.2 (rBsep [14]): -VE
Inhibition of rBsep cutoff<3 (rBsep [14]): +VE
THLE-Null [15]: -VE
THLE-Null/3A4 [15]: -VE
Cluster 1-6 +VE Assay [5]: +VE
DILI +VE (5-8), DILI -VE (-4) ([9]; ref Chen 2016): +VE
DILI severity category ([9]; ref Chen 2016): vLess-DILI-Concern
In vivo DILI ([13]; ref Dawson 2012): +VE
In vivo DILI ([13]; ref Garside 2014): +VE
In vivo DILI ([13]; ref Gustafsson 2014): +VE

CCC(=O)O[C@H]1[C@H](O[C@@H]2[C@@H](C)[C@H](O[C@H]3C[C@@](C)(OC)[C@@H](O)[C@H](C)O3)[C@@H](C)C(=O)O[C@H](CC)[C@@](C)(O)[C@H](O)[C@@H](C)C(=O)[C@H](C)C[C@@]2(C)O)O[C@H](C)C[C@@H]1N(C)C [erythromycin estolate]
Structural based (HCI) (human hepatocytes): +VE
Inhibition of rBsep cutoff<1& cmax u>.2 (rBsep [14]): +VE
Inhibition of rBsep cutoff<3 (rBsep [14]): +VE
Partition Hybrid HRM Score [10]: +VE
Ro2 Hybrid HRM Score [10]: +VE
In vivo DILI ([13]; ref Aleo 2019): +VE
In vivo DILI ([13]; ref Dawson 2012): +VE
In vivo DILI ([13]; ref Xu 2008): +VE

COc1ccc(Cl)cc1C(=O)NCCc1ccc(S(=O)(=O)NC(=O)NC2CCCCC2)cc1 [glibenclamide]
Inhibition of rBsep cutoff<1& cmax u>.2 (rBsep [14]): +VE
Inhibition of rBsep cutoff<3 (rBsep [14]): +VE
Cluster 1-6 +VE Assay [5]: +VE

CC(C)NCC(O)c1ccc(O)c(O)c1 (centres unmarked) [isoproterenol]
Structural based (HCI) (human hepatocytes): -VE
Structural based (HCI) (HepG2 cells [1]): -VE
hLiMTs ATP <20 x Cmax (PHH spheroids): -VE
THLE-Null [15]: -VE
THLE-Null/3A4 [15]: -VE
Cluster 1-6 +VE Assay [5]: +VE
Cluser analysis (HepG2 cells [7]): -VE
Structural based (HCI) (HepG2 cells [7]): -VE
DILI +VE (5-8), DILI -VE (-4) ([9]; ref Chen 2016): -VE
DILI severity category ([9]; ref Chen 2016): vNo-DILI-Concern
Partition Hybrid HRM Score [10]: -VE
Ro2 Hybrid HRM Score [10]: -VE
Upcytes multi donor assay 14day data (Upcyte human hepatocytes): -VE
Inhibition of rBsep cutoff<1& cmax u>.2 (rBsep [11]): -VE
Inhibition of rBsep cutoff<3 (rBsep [11]): -VE
In vivo DILI ([13]; ref Aleo 2019): -VE
In vivo DILI ([13]; ref Dawson 2012): -VE
In vivo DILI ([13]; ref Garside 2014): -VE
In vivo DILI ([13]; ref Gustafsson 2014): -VE
In vivo DILI ([13]; ref O'Brien 2006): -VE
In vivo DILI ([13]; ref Persson 2013): -VE
In vivo DILI ([13]; ref Tolosa 2019): -VE
In vivo DILI ([13]; ref Vorrink 2018): -VE
In vivo DILI ([13]; ref Xu 2008): -VE

COc1ccc(C(=O)NCc2cccnc2)cc1C(=O)NCc1cccnc1 [picotamide]
Structural based (HCI) (HepG2 cells [1]): +VE (lowest HCI endpoint IC50 (or in the absence of dose–response < 100 µM) < 30 × total human plasma exposure levels (Cmax.tot))
Inhibition of rBsep cutoff<1& cmax u>.2 (rBsep [14]): -VE
Inhibition of rBsep cutoff<3 (rBsep [14]): -VE
In vivo DILI ([13]; ref Dawson 2012): -VE
In vivo DILI ([13]; ref Gustafsson 2014): -VE
In vivo DILI ([13]; ref O'Brien 2006): -VE
